The target of this test is T1, human H3R (Homo sapiens, UniProt Q9Y5N1).
T1 construct: expressed in transfected cells; pcDNA3.1(+) vector, G418 selection), membranes
As to the kind of experiment: Histamine H3 Receptor Binding Assay (competitive inhibition SPA, membranes of transfected HEK293 cells). The settings on record: Ki's at the human H3R. From the text:
The compounds of the present invention can readily be evaluated by using a competitive inhibition Scintillation Proximity Assay (SPA) based on a H3R binding assay using R-[3H] α methylhistamine as ligand. Stable cell lines, including but not limited to HEK can be transfected with cDNA coding for H3R to prepare membranes used for the binding assay. The technique is illustrated below (Preparation of Histamine Receptor Subtype Membranes) for the histamine receptor subtypes.
cDNA for the human histamine 1 receptor (H1R) was cloned into a mammalian expression vector containing the CMV promoter (pcDNA3.1(+), Invitogen) and transfected into HEK293 cells using the FuGENE Tranfection Reagent (Roche Diagnostics Corporation). Transfected cells were selected using G418 (500 μ/mL). Colonies that survived selection were grown and tested for histamine binding to cells grown in 96-well dishes using a scintillation proximity assay (SPA) based radioligand binding assay. Briefly, cells, representing individual selected clones, were grown as confluent monolayers in 96-well dishes (Costar Clear Bottom Plates, #3632) by seeding wells with 25,000 cells and growing for 48 hours (37° C., 5% CO2). […] Plates were counted in a Wallac Trilux 1450 Microbeta scintillation counter. […]
cDNA for the human histamine 3 receptor was cloned and expressed as described in (A. Preparation H1R membranes), above. […]

T1 sequence (Q9Y5N1 whole entry): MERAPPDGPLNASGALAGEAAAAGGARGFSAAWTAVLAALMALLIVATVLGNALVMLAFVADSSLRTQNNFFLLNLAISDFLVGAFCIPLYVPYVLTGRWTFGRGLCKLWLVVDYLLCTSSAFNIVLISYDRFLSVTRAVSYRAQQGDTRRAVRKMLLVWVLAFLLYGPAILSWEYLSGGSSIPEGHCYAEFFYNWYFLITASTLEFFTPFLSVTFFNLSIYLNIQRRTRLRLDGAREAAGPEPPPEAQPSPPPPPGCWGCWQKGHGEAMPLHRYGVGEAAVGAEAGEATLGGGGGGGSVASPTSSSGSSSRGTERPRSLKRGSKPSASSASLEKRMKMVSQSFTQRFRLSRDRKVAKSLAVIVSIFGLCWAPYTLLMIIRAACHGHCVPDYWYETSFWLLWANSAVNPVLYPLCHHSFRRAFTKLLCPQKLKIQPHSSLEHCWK

`CS(=O)(=O)Nc1ccc(-c2ccc(-c3nc(CN4CCCC4)co3)cc2)cc1` displayed a Ki of 1.6 nM. In other words, the single-digit nanomolar range. The value for `COC[C@@H]1CCCN1CCc1nc(-c2ccc(-c3cccnc3)cc2)oc1C` was 14.3 nM.

The record behind these values is US7666871B2, “Oxazole derivatives as histamine H3 receptor agents, preparation and therapeutic uses” (Eli Lilly and Company, priority 2004, dated 2010).
